# Like-named read-outs stand apart in the source and are kept apart here.
# How the values were obtained:
# [1] = tested on: viral activity; conditions: cited from earlier work
# [2] = biological target: T1, HIV-1 protease (wild-type, WT) (Human immunodeficiency virus type 1 group M subtype B, UniProt P04585); test: Inhibition of purified wild-type HIV-1 protease (fluorogenic substrate cleavage), Ki and % inhibition; assay type: biochemical
# T1 construct: purified HIV-1 protease (wild-type, WT)
# Experimental: (§1) The inhibition constants (Ki) for the compounds of the above examples were determined using purified HIV-1 protease (wild-type, WT) (Tables I, II, IV and V) and R8Q and V82I mutant HIV-1 proteases (Table III). Ki is an inhibition constant of a given compound as derived by enzyme kinetics. A low Ki represents a high affinity of the compound for the enzyme, i.e., tight binding or low dissociation. Inhibition of the cleavage was assayed using a fluorogenic substrate available from Molecular Probes, Inc., Eugene, Oreg., and described in Kageyama et al., Antimicrob. Agents. Chemother., 37, 272 (1993), and a fluorogenic substrate available from Bachem California, Torrance, Calif., and described in Kageyama et al. (1993), supra. The inhibitory potencies of these compounds are set forth in Tables I-V. Percent inhibition is the percentage inhibition of an enzyme's activity by a given compound at a given concentration.
# [3] = biological target: T2, V82I mutant HIV-1 protease (Human immunodeficiency virus type 1 group M subtype B, UniProt P04585, V570I); test: Inhibition of V82I mutant HIV-1 protease (fluorogenic substrate cleavage); assay type: biochemical; conditions: Table III
# T2 construct: R8Q and V82I mutant HIV-1 proteases
# Experimental: as §1
# [4] = biological target: T3, R8Q mutant HIV-1 protease (Human immunodeficiency virus type 1 group M subtype B, UniProt P04585, R496Q); test: Inhibition of R8Q mutant HIV-1 protease (fluorogenic substrate cleavage); assay type: biochemical; conditions: Table III
# T3 construct: R8Q and V82I mutant HIV-1 proteases
# Experimental: as §1
# [5] = Table III, wild-type HIV protease, read-out: Ki WT
# [6] = Table V, spread wrapped on the next line: DN-1 ± 0.6, DN-4 ± 0.09, DN-5 ± 1.3, DN-6B ± 0.3, DN-10 ± 0.007, DN-11 ± 0.1, read-out: Ki
smiles,measurement,setting,value
CC(C)c1nc(CN(C)C(=O)N[C@H](C(=O)N[C@@H](Cc2ccccc2)C[C@H](O)[C@H](Cc2ccccc2)NC(=O)OCc2cncs2)C(C)C)cs1 [ABT538],EC50,[1]; comparison compounds in clinical trials,36 nM
O=C(Cc1ccccc1)N[C@@H](Cc1ccccc1)[C@H](O)[C@H](O)[C@H](Cc1ccccc1)NC(=O)Cc1ccccc1 [Compound 5],inhibition of HIV PR (in words),[2],weak inhibitor of HIV PR
same,inhibition at 10 µM,[2]; read-out: % inhib,38%
O=C(Cc1cccc(O)c1)N[C@@H](Cc1ccccc1)[C@H](O)[C@H](O)[C@H](Cc1ccccc1)NC(=O)Cc1cccc(O)c1 [Compound 5a],inhibition of HIV PR (in words),[2],small improvements in inhibition of HIV PR
same,Ki,"[2]; Table I, read-out: Ki",3000 nM
O=C(Cc1ccccc1O)N[C@@H](Cc1ccccc1)[C@H](O)[C@H](O)[C@H](Cc1ccccc1)NC(=O)Cc1ccccc1O [Compound 5b],inhibition of HIV PR (in words),[2],small improvements in inhibition of HIV PR
same,inhibition at 10 µM,[2]; read-out: % inhib,66%
O=C(N[C@@H](Cc1ccccc1)[C@@H](O)[C@H](O)[C@H](Cc1ccccc1)NC(=O)c1ccccc1)c1ccccc1 [Compound 6],inhibition at 10 µM,[2]; read-out: % inhib,55%
"O=C(N[C@@H](Cc1ccccc1)[C@H](O)[C@H](O)[C@H](Cc1ccccc1)NC(=O)c1cccc(O)c1)c1cccc(O)c1 [Compound 7, (2S,3R,4S,5S)-2,5-bis[((3-hydroxyphenyl)carbonyl)amino]-3,4-dihydroxy-1,6-diphenyl-hexane]",Ki,[3],51 nM
same,Ki,[4],36 nM
same,inhibition of HIV PR (in words),[2],potent inhibitors of HIV PR
same,Ki,"[2]; Table II, read-out: Ki",22 nM
same,Ki,[2]; [5],22 nM
same,"relative potency, R,S vs R,R diol core (compounds 7 and 8)","[2]; in general, R,S core compared with R,R core",three times more potent
same,Ki,[2]; read-out: Ki,22 nM
O=C(N[C@@H](Cc1ccccc1)[C@@H](O)[C@H](O)[C@H](Cc1ccccc1)NC(=O)c1cccc(O)c1)c1cccc(O)c1 [Compound 8],Ki,"[2]; Table II, read-out: Ki",79 nM
O=C(NC(Cc1ccccc1)C(O)C(O)C(Cc1ccccc1)NC(=O)c1cccc(O)c1)c1cccc(O)c1 (stereo not shown) [Compound 9],Ki,"[2]; Table II, read-out: Ki",43 nM
O=C(N[C@@H](Cc1ccccc1)[C@@H](O)[C@H](O)[C@H](Cc1ccccc1)NC(=O)c1ccc(O)cc1)c1ccc(O)cc1 [Compound 10],Ki,"[2]; Table II, read-out: Ki",330 nM
same,Ki,[2]; read-out: Ki,330 nM
O=C(N[C@@H](Cc1ccccc1)[C@@H](O)[C@H](O)[C@H](Cc1ccccc1)NC(=O)c1ccccc1O)c1ccccc1O [Compound 11],inhibition of HIV PR (in words),[2],dramatic loss in enzyme inhibitory potency
same,inhibition at 10 µM,"[2]; at 10 μM, read-out: % inhibition",66%
same,inhibition at 10 µM,[2]; read-out: % inhib,66%
O=C(N[C@@H](Cc1ccccc1)[C@H](O)[C@H](O)[C@H](Cc1ccccc1)NC(=O)c1ccc(O)c(O)c1)c1ccc(O)c(O)c1 [Compound 12],Ki,[3],235 nM
same,Ki,[4],40 nM
same,Ki,"[2]; Table II, unit nm [sic], read-out: Ki",80 nM
same,Ki,[2]; [5],80 nM
O=C(N[C@@H](Cc1ccccc1)[C@H](O)[C@H](O)[C@H](Cc1ccccc1)NC(=O)c1cc(O)cc(O)c1)c1cc(O)cc(O)c1 [Compound 13],Ki,"[2]; Table II, read-out: Ki",700 nM
Cc1cc(O)cc(C(=O)N[C@@H](Cc2ccccc2)[C@H](O)[C@H](O)[C@H](Cc2ccccc2)NC(=O)c2cc(C)cc(O)c2)c1 [Compound 14],Ki,"[2]; Table II, read-out: Ki",1000 nM
Cc1ccc(O)cc1C(=O)N[C@@H](Cc1ccccc1)[C@H](O)[C@H](O)[C@H](Cc1ccccc1)NC(=O)c1cc(O)ccc1C [Compound 15],Ki,[3],54 nM
same,Ki,[4],89 nM
same,Ki,"[2]; Table II, read-out: Ki",75 nM
same,Ki,[2]; [5],75 nM
same,Ki,[2]; read-out: Ki,75 nM
Cc1ccc(C(=O)N[C@@H](Cc2ccccc2)[C@H](O)[C@H](O)[C@H](Cc2ccccc2)NC(=O)c2ccc(C)c(O)c2)cc1O [Compound 16],Ki,"[2]; Table II, read-out: Ki",132 nM
Nc1cccc(C(=O)N[C@@H](Cc2ccccc2)[C@H](O)[C@H](O)[C@H](Cc2ccccc2)NC(=O)c2cccc(N)c2)c1 [Compound 17],Ki,[3],109 nM
same,Ki,[4],20 nM
same,inhibition of HIV PR (in words),[2],potent inhibitors of HIV PR
same,Ki,"[2]; Table II, read-out: Ki",5 nM
same,Ki,[2]; [5],5 nM
same,Ki,[2]; read-out: Ki,5 nM
COCCOCCOc1cccc(C(=O)N[C@@H](Cc2ccccc2)[C@H](O)[C@H](O)[C@H](Cc2ccccc2)NC(=O)c2cccc(OCCOCCOC)c2)c1 [Compound 18],inhibition at 10 µM,[2]; read-out: % inhib,63%
O=C(N[C@@H](Cc1ccccc1)[C@H](O)[C@H](O)[C@H](Cc1ccccc1)NC(=O)c1cccc(OCCOc2ccccc2)c1)c1cccc(OCCOc2ccccc2)c1 [Compound 19],inhibition at 10 µM,[2]; read-out: % inhib,9%
O=C(N[C@@H](Cc1ccccc1)[C@H](O)[C@H](O)[C@H](Cc1ccccc1)NC(=O)c1cc(=O)c2ccccc2o1)c1cc(=O)c2ccccc2o1 [Compound 20],inhibition of HIV PR (in words),[2],diminished binding
same,inhibition at 10 µM,[2]; read-out: % inhib,67%
O=C(N[C@@H](Cc1ccccc1)[C@H](O)[C@H](O)[C@H](Cc1ccccc1)NC(=O)c1cc(O)c2ccccc2n1)c1cc(O)c2ccccc2n1 [Compound 21],inhibition of HIV PR (in words),[2],diminished binding
same,inhibition at 10 µM,[2]; read-out: % inhib,31%
O=C(N[C@@H](Cc1ccccc1)[C@H](O)[C@H](O)[C@H](Cc1ccccc1)NC(=O)c1cccc([N+](=O)[O-])c1)c1cccc([N+](=O)[O-])c1 [Compound 22],inhibition at 10 µM,[2]; read-out: % inhib,40%
O=C(N[C@@H](Cc1ccccc1)[C@@H](O)[C@H](O)[C@H](Cc1ccccc1)NC(=O)c1cccnc1)c1cccnc1 [Compound 23],Ki,"[2]; Table II, read-out: Ki",400 nM
O=C(N[C@@H](Cc1ccccc1)C[C@H](O)[C@H](Cc1ccccc1)NC(=O)c1cccc(O)c1)c1cccc(O)c1 [Compound 24],Ki,[3],96 nM
same,Ki,[4],34 nM
same,inhibition of HIV PR (in words),[2],did not improve the inhibitory potencies
same,Ki,"[2]; Table II, read-out: Ki",25 nM
same,Ki,[2]; [5],25 nM
Nc1cccc(C(=O)N[C@@H](Cc2ccccc2)C[C@H](O)[C@H](Cc2ccccc2)NC(=O)c2cccc(N)c2)c1 [Compound 25],inhibition of HIV PR (in words),[2],did not improve the inhibitory potencies
same,Ki,"[2]; Table II, read-out: Ki",6 nM
CC(=O)Nc1ccccc1C(=O)N[C@@H](Cc1ccccc1)[C@H](O)[C@H](O)[C@H](Cc1ccccc1)NC(=O)c1ccccc1NC(C)=O [Compound 26],Ki,"[2]; Table IV, read-out: Ki",41 nM
same,Ki,[2]; read-out: Ki,41 nM
CCOC(=O)Nc1ccccc1C(=O)N[C@@H](Cc1ccccc1)[C@H](O)[C@H](O)[C@H](Cc1ccccc1)NC(=O)c1ccccc1NC(=O)OCC [Compound 28],inhibition at 10 µM,"[2]; Table IV, @ 10 μM, read-out: % inhibition",41%
O=C(CO)Nc1ccccc1C(=O)N[C@@H](Cc1ccccc1)[C@H](O)[C@H](O)[C@H](Cc1ccccc1)NC(=O)c1ccccc1NC(=O)CO [Compound 29],Ki,"[2]; Table IV, read-out: Ki",41 nM
O=C(Nc1ncccc1C(=O)N[C@@H](Cc1ccccc1)[C@H](O)[C@H](O)[C@H](Cc1ccccc1)NC(=O)c1cccnc1NC(=O)OCc1ccccc1)OCc1ccccc1 [Compound 30],Ki,"[2]; Table IV, read-out: Ki",3 nM
Cc1cccc(C(=O)N[C@@H](Cc2ccccc2)[C@H](O)[C@H](O)[C@H](Cc2ccccc2)NC(=O)c2cccc(C)c2NC(=O)OCc2ccccc2)c1NC(=O)OCc1ccccc1 [Compound 31],Ki,"[2]; Table IV, read-out: Ki",12 nM
O=C(Nc1c(Cl)cccc1C(=O)N[C@@H](Cc1ccccc1)[C@H](O)[C@H](O)[C@H](Cc1ccccc1)NC(=O)c1cccc(Cl)c1NC(=O)OCc1ccccc1)OCc1ccccc1 [Compound 32],Ki,"[2]; Table IV, read-out: Ki",91 nM
O=C(Nc1c(O)cccc1C(=O)N[C@@H](Cc1ccccc1)[C@H](O)[C@H](O)[C@H](Cc1ccccc1)NC(=O)c1cccc(O)c1NC(=O)OCc1ccccc1)OCc1ccccc1 [Compound 33],Ki,"[2]; Table IV, read-out: Ki",20 nM
O=C(Nc1ccccc1C(=O)N[C@@H](Cc1ccccc1)C[C@H](O)[C@H](Cc1ccccc1)NC(=O)c1ccccc1NC(=O)OCc1ccccc1)OCc1ccccc1 [Compound 35],Ki,"[2]; Table IV, read-out: Ki",1.2 nM
CC(C)[C@H](NC(=O)N(C)Cc1ccccn1)C(=O)N[C@@H](Cc1ccccc1)[C@H](O)[C@H](O)[C@H](Cc1ccccc1)NC(=O)[C@@H](NC(=O)N(C)Cc1ccccn1)C(C)C [Compound A77003],EC50,"[1]; comparison compound in clinical trials, no unit printed (Ho et al.)",200 nM
O=C(N[C@@H](Cc1ccccc1)[C@H](O)[C@H](O)[C@H](Cc1ccccc1)NC(=O)c1cccc(O)c1)OCc1ccccc1 [DN-1],Ki,[2]; [6],11.9 nM
O=C(Nc1ccccc1C(=O)N[C@@H](Cc1ccccc1)[C@H](O)[C@H](O)[C@H](Cc1ccccc1)NC(=O)c1cccc(O)c1)OCc1ccccn1 [DN-4],Ki,[2]; [6],1.7 nM
CC(C)(C)OC(=O)Nc1ccc(C(=O)N[C@@H](Cc2ccccc2)[C@@H](O)[C@@H](O)[C@H](Cc2ccccc2)NC(=O)OCc2ccccc2)cc1 [DN-5],Ki,[2]; [6],15.8 nM
Nc1ccc(C(=O)N[C@@H](Cc2ccccc2)[C@@H](O)[C@@H](O)[C@H](Cc2ccccc2)NC(=O)c2ccccc2NC(=O)OCc2ccccn2)cc1 [DN-6B],Ki,[2]; [6],6.6 nM
CC(C)(C)OC(=O)Nc1ccc(C(=O)N[C@@H](Cc2ccccc2)[C@@H](O)[C@@H](O)[C@H](Cc2ccccc2)NC(=O)c2ccccc2NC(=O)OCc2ccccn2)cc1 [DN-6],inhibition at 1 µM,"[2]; Table V, @ 1 μM, read-out: % inhibition (printed after % Inhib. Conc.)",15%
same,% Inhib. Conc.,"[2]; Table V, @ 10 NM (so in the source)",40%
CC(C)(C)OC(=O)N[C@@H](Cc1ccccc1)[C@@H](O)[C@@H](O)[C@H](Cc1ccccc1)NC(=O)OCc1ccccc1 [DN-10],Ki,[2]; [6],3.09 nM
O=C(Nc1ccccc1C(=O)N[C@@H](Cc1ccccc1)[C@@H](O)[C@@H](O)[C@H](Cc1ccccc1)NC(=O)c1cccc(O)c1)OCc1ccccn1 [ND-4],Ki,[2]; [6],0.7 nM

# Source: US6066656A, “2,5-diamino-3,4-disubstituted-1,6-diphenylhexane isosteres comprising benzamide, sulfonamide and anthranilamide subunits and methods of using same” (The United States of America as represented by the …, priority 1998, dated 2000)
